Measured values taken from patent US20150306096A1, “8'-HYDROXY-DIHYDROERGOTAMINE COMPOUNDS AND COMPOSITIONS” (MAP Pharmaceuticals, Inc., priority 2012, published 2015).

How the values were obtained:
OP2 (κ) = target: T1, OP2 (κ) (Homo sapiens, UniProt P41145); assay: GTPγS assay; assay type: biochemical; settings: antagonism
T1 construct: expressed in transfected cells; host or cells: CHO-K1 (membrane extracts)
Method: (§1) Additional receptor agonist/agonist activity assessments were performed using the 8′-OH DHE test compound. Table 12 contains a summary of the cell lines (CHO-K1/HEK293 transfected with relevant human receptor) and the assays performed to detect any agonist or antagonist activity.
Reagents used were the following: Assay buffer (20 mM HEPES, pH 7.4; 100 mM NaCl; 10 mg/mL saponin; 30 mM MgCl2); Membranes (recombinant human receptor membrane extracts were thawed on ice and diluted in assay buffer to give […] (10 μgμL) and kept on ice); GDP (diluted in assay buffer to give 30 μM solution (3 μM final concentration); beads (PVT-WGA (Amersham, RPNQ001), diluted in assay buffer at 25 mg/mL (0.25 mg/10 μL)); GTPγ^35S (Perkin Elmer, NEG030X), diluted in assay buffer to give 0.1 nM (final concentration); and ligand (agonist/antagonist diluted in assay buffer).
Membranes were mixed with GDP (1:1) and incubated for at least 15 minutes on ice. In parallel, GTPγ^35S was mixed with the beads (1:1) just before starting the reaction. […] The plates were then centrifuged for 10 minutes at 2,000 rpm and incubated at RT for 1 hour and counted for 1 min/well with a Perkin Elmer TopCount reader.

Adenosine A2a = target: T2, Adenosine A2a (Homo sapiens, UniProt P29274); assay: cAMP HTRF assay; assay type: cell-based
T2 construct: expressed in transfected cells; host or cells: HEK293
T2 sequence (P29274 whole entry): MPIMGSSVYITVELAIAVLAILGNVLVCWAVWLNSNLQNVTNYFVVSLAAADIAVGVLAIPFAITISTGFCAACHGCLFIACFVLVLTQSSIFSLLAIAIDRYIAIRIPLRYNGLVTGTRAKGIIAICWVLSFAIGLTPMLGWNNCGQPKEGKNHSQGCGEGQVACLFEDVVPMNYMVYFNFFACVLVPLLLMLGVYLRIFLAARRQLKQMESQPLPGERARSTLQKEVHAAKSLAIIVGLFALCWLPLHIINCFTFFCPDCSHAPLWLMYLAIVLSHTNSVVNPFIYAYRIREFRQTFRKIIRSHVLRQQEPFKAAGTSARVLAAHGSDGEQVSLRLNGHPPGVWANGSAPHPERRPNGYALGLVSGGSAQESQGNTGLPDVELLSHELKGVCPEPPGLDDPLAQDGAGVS
Method: as §1
Cells expressing the human recombinant receptor of interest were grown in media without antibiotic and detached by gentle flushing with PBS-EDTA (5 mM EDTA), recovered by centrifugation and resuspended in assay buffer (KRH: 5 mM KCl, 1.25 mM MgSO4, 124 mM NaCl, 25 mM HEPES, 13.3 mM glucose, 1.25 mM KH2PO4, 1.45 mM CaCl2, 0.5 g/L BSA). Dose response curves were performed in parallel with the reference compounds. For agonist tests (96-well plates), 12 μL of cells was mixed with 12 μL of the test 8′-OH DHE compound at increasing concentrations and then incubated for 30 minutes at RT. Lysis buffer was added and after one hour incubation, cAMP concentrations were determined according to the manufacturer specification with the HTRF kit. For antagonist tests (96-well plates), 12 μL of cells was mixed with 6 μL of the test 8′-OH DHE compound at increasing concentrations and then incubated for 10 minutes. […] Lysis buffer was added and after 1 hour incubation, cAMP concentrations were determined according to the manufacturer specification, with the HTRF kit. […]

T1 sequence (P41145 whole entry): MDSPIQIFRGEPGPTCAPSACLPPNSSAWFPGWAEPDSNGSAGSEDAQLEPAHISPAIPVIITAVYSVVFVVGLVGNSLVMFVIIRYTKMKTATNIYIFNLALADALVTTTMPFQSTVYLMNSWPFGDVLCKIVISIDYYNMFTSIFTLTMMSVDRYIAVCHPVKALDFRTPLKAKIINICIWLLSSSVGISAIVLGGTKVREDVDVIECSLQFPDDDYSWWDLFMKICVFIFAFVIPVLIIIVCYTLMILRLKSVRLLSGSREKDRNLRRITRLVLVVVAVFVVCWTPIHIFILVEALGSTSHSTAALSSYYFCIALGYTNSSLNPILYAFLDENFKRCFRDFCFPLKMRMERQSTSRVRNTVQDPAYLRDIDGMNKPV

## CN1C[C@H](C(=O)N[C@]2(C)O[C@@]3(O)[C@@H]4CCC(O)N4C(=O)[C@H](Cc4ccccc4)N3C2=O)C[C@@H]2c3cccc4[nH]cc(c34)C[C@H]21 (some centres unmarked) [8′-OH DHE, 8′-Hydroxy-Dihydroergotamine]
OP2 (κ)
  IC50: > 1000 nM
Adenosine A2a
  Activity (Agonism: EC50; Antagonism: IC50): Inactive
